# Paper PMC10694853, “Bio-guided isolation of alpha-glucosidase inhibitory compounds from Vietnamese Garcinia schomburgkiana fruits: in vitro and in silico studies” (RSC Advances, 2023)
# “Also recorded” adds a separate entry of the source. Read-outs that look alike come from different tables or passages of the source.
# How the values were obtained:
# yeast alpha-glucosidase = experiment: Alpha-glucosidase inhibition assay; assay type: biochemical; conditions: isolated compounds
# Procedure: Extracts and fractions EA1–EA16 were evaluated for the alpha-glucosidase inhibition to choose the fraction for further analysis. The isolation of 1–11 was described in Scheme 1 using silica gel CC with various solvent systems.
# Evaluation of the inhibitory activity of 1–11 against yeast alpha-glucosidase followed a previous procedure.[34]
# alpha-glucosidase [1] = experiment: Kinetic study of alpha-glucosidase inhibition (Lineweaver–Burk plots); assay type: biochemical
# Procedure: To better understand the kinetic parameters of alpha-glucosidase inhibition by 2, the enzyme activity was assessed by varying substrate concentrations in the absence or presence of 2. The inhibition type was identified through Lineweaver–Burk plots (Fig. 3A), where the reciprocal of the reaction rate (1/V) was graphed against the reciprocal of substrate concentrations (1/[S]). This approach allowed monitoring the effect of the inhibitor on both Km and Vmax. […] The inhibition constant for the inhibitor binding with free enzyme (Ki) was determined from a plot of the slope (Km/Vm) versus the inhibitor concentration (Fig. 3B).
# The kinetics of 2 against alpha-glucosidase was conducted by varying the concentration of p-NPG substrate in the absence or presence of tested compound at different concentrations (0, 30.0, and 60.0 μM). The Lineweaver–Burk plots were used to determine the inhibition type. In addition, the inhibition constant Ki is an indication of the potency of an inhibitor and was determined from secondary plots of 1/V vs. [I].[35] The Lineweaver–Burk double-reciprocal plot (1/V vs. 1/[S]) was employed to discern the Vmax, […], and mode of inhibition (Fig. 10). [drawing 1]
# alpha-glucosidase [2] = conditions: cited from earlier work; for IC50: read-out: Alpha-glucosidase inhibition IC50
# [3] = molecular target: protein tyrosine phosphatase 1B; design: method as in PMID 34111550; conditions: isolated from H. forrestii; read-out: PTP1B inhibition IC50; cited from earlier work
Compound,IC50 (yeast alpha-glucosidase) [µM],other results
"CC(C)=CCCC1(C)C(CC=C(C)C)CC2(CC=C(C)C)C(=O)C(C(=O)c3ccccc3)=C(O)C1C2=O (stereo not drawn) [Compound 1, epi-guttiferone Q]",60.7 ± 3.6,
"CC(C)=CCC/C(C)=C/C[C@H]1C[C@]2(CC=C(C)C)C(=O)[C@@](CC=C(C)C)(C(=O)C(C(=O)c3ccc(O)c(O)c3)=C2O)[C@]1(C)CCC=C(C)C [Compound 2, guttiferone I]",29.4 ± 1.2,"Inhibition type (alpha-glucosidase [1]; Lineweaver–Burk plots, Vmax constant, Km increased): competitive inhibitor; also recorded: competitive type; Ki (alpha-glucosidase [1]; from plot of slope (Km/Vm) versus inhibitor concentration, p-NPG substrate, read-out: Inhibition constant Ki): 69.2 µM; IC50 (alpha-glucosidase [2]; compound from G. cowa): 13.1 µM"
"CC(C)=CCCC(C)=CCC12CC3CC4C(C)(C)CCC4(C1=O)C(=O)C(C(=O)c1ccccc1)(C2=O)C3(C)C (stereo not shown) [Compound 4, hypersampsone I]",131 ± 4.6,
"C=C(C)C1CC23C(=O)C4(CC=C(C)CCC=C(C)C)CC(CC2C1(C)C)C(C)(C)C(C(=O)c1ccccc1)(C4=O)C3=O (stereo not shown) [Compound 5, sampsonione D]",116 ± 2.7,
"CC(C)=CCC/C(C)=C/C[C@]12C[C@@H]3C[C@H]4C(C)(C)CC[C@@]4(C1=O)C(=O)[C@](C(=O)c1ccccc1)(C2=O)C3(C)C [Compound 6, sampsonione H]",56.9 ± 1.9,IC50 [3]: 6.63 ± 2.4 µM
"COc1cc2oc3cc(O)c(OC)c(CC=C(C)C)c3c(=O)c2c(O)c1CC=C(C)C [Compound 7, β-mangostin]",> 200,
"COc1c(O)cc2oc3cc(O)c(CC=C(C)C)c(O)c3c(=O)c2c1CC=C(C)C [Compound 8, α-mangostin]",> 200,
"COc1c(O)cc2oc3cc(O)c4c(c3c(=O)c2c1CC=C(C)C)OC(C)(C)C(O)C4 (stereo not shown) [Compound 11, 11-hydroxy-1-isomangostin]",> 200,
CC(C)=CCCC1(C)C(CC=C(C)C)CC2(CC=C(C)C)C(=O)C(C(=O)c3ccccc3)=C(O)C1C2=O (stereo not shown) [Guttiferone Q],,IC50 (alpha-glucosidase [2]): 118 µM
C[C@H]1O[C@H](O[C@H]2[C@H](O)[C@@H](O)[C@@H](O[C@H]3[C@H](O)[C@@H](O)C(O)O[C@@H]3CO)O[C@@H]2CO)[C@H](O)[C@@H](O)[C@@H]1N[C@H]1C=C(CO)[C@@H](O)[C@H](O)[C@H]1O (stereo partly shown) [acarbose],,"Inhibition type (alpha-glucosidase [2]; positive control, previous work): competitive inhibitor"
CC(C)=CCCC1(C)C(CC=C(C)C)CC23CCC(C)(C)OC2=C(C(=O)c2ccc(O)c(O)c2)C(=O)C1(CC=C(C)C)C3=O (stereo not shown) [schomburgkianone I],,IC50 (alpha-glucosidase [2]; isolated from Thai G. schomburgkiana sources): 21.2 µM
guttiferone K [Compound 3],16.2 ± 0.7,
